# US20080171716A1, “NUCLEIC ACID MODULATION OF TOLL-LIKE RECEPTOR-MEDIATED IMMUNE STIMULATION” (Protiva Biotherapeutics, Inc., priority 2006, published 2008)
# How the values were obtained:
# TLR9 = target: T1, TLR9 (Mus musculus, UniProt Q9EQU3); assay: CpG ODN (TLR9 agonist)-induced IFN-α in murine Flt3L-derived dendritic cells; assay type: cell-based; details: murine Flt3L cultures; phosphodiester backbone; formulated in lipid nanoparticles
# T1 construct: endogenous in cells; host or cells: Flt3L-derived dendritic cells cultured from bone marrow of female Balb/C mice
# T1 sequence (Q9EQU3 26-1032): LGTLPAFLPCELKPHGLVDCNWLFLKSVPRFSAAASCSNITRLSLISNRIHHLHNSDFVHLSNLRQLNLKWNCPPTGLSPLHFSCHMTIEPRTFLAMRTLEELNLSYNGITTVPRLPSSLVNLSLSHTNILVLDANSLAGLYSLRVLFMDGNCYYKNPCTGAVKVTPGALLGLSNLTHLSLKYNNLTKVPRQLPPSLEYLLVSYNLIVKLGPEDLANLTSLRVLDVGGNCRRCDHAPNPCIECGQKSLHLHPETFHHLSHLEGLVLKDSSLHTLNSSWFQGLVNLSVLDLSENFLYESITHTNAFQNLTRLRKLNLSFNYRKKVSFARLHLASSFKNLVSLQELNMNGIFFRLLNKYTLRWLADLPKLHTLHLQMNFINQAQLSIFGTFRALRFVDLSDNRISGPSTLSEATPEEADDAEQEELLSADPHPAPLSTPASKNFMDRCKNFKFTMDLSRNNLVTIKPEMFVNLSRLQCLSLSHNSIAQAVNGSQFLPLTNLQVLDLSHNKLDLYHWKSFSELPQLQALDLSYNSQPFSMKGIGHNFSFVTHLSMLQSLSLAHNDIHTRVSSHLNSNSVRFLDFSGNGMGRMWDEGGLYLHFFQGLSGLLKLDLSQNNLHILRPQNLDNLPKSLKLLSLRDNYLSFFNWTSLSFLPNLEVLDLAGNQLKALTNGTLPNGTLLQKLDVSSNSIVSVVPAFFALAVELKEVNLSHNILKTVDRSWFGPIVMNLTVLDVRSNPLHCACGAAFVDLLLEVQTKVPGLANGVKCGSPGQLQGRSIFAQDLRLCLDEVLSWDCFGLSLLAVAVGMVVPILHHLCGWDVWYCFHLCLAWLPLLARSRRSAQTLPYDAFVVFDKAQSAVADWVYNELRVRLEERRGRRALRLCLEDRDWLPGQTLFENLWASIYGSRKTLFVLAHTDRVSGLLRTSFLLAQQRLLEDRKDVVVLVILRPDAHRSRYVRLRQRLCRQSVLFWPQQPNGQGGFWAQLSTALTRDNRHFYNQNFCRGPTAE
# Procedure: (§1) Lipid Encapsulation of RNA and ODN. RNA or ODN were encapsulated in liposomes by a process of spontaneous vesicle formation as described in Judge et al., supra, and Jeffs et al., Pharm. Res., 22:362-372 (2005).
# Flt3L-derived dendritic cells (DC) were generated as described in Gilliet et al., J. Exp. Med., 195:953-958 (2002), using 100 ng/ml murine Flt3-ligand (Peprotech) supplemented media. Femurs and tibiae of female Balb/C mice were isolated and rinsed in sterile PBS. The ends of bones were cut and marrow harvested in complete media (RPMI 1640, 10% heat inactivated FBS, 1% penicillin/streptomycin, 2 mM L-glutamine, 1 mM sodium pyruvate, 25 mM HEPES, 50 μM 2-mercaptoethanol). Bone marrow cells were passed through a 70 μm strainer and centrifuged at 1000 rpm for 7 min. and resuspended in complete media supplemented with 100 ng/ml murine Flt3L to 2×10^6 cells/ml. 2 ml of cells were seeded in 6-well plates and 1 ml fresh media was added every two to three days. On day 9 of culture, non-adherent cells were washed in complete media and plated into 96-well plates at concentrations ranging from 0.5 to 2.5×10^5 cells/well.
# (§2) Loxoribine (InvivoGen; San Diego, Calif.), polyIC (Sigma-Aldrich; St. Louis, Mo.), and formulated nucleic acids were diluted in PBS and added to either human PBMC or Flt3L DC cultures. Cells were incubated 24 h at 37° C. before supernatants were assayed for cytokines by ELISA.
# (§3) Cytokine ELISA. All cytokines were quantified using sandwich ELISA kits according to the manufacturer's instructions. These were mouse and human IFN-α (PBL Biomedical; Piscataway, N.J.) and IL-6 (eBioscience; San Diego, Calif.).
# TLR7 [1] = target: T2, TLR7 (Mus musculus, UniProt P58681); assay: In vivo cytokine induction by formulated ssRNA in mice; parameters: from tissue; host or cells: whole animal: female Balb/C mice, plasma cytokines; species or system Balb/C mice; details: IV, plasma 6 h after administration
# T2 sequence (P58681 27-1050): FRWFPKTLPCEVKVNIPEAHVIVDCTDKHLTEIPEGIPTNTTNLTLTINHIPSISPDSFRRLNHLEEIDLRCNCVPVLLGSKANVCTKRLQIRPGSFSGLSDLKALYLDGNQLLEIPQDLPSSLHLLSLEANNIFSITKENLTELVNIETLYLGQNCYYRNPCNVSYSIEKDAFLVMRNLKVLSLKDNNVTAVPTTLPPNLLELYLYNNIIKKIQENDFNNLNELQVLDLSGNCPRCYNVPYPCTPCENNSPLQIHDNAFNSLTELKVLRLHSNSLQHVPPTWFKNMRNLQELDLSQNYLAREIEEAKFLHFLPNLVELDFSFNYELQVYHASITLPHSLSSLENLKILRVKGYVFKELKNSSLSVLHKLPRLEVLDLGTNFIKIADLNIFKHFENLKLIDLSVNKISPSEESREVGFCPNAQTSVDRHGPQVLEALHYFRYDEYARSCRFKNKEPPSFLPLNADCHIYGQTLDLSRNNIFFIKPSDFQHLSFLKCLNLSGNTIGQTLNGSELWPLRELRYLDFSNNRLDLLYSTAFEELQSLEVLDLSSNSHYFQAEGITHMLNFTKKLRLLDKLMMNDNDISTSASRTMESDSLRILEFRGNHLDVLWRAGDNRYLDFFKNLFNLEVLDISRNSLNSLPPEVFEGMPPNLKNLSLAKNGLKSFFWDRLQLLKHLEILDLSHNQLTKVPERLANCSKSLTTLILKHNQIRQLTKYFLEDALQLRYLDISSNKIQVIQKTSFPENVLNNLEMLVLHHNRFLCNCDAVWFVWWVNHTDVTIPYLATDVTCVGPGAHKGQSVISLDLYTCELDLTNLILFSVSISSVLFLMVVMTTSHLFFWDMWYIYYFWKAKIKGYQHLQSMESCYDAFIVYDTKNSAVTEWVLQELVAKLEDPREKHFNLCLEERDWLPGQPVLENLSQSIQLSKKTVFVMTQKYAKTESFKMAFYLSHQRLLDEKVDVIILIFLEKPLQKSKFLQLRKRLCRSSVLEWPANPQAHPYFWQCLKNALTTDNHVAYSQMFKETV
# Procedure: as §3
# (§4) In Vivo Cytokine Induction. Animal studies were performed at Protiva Biotherapeutics in accordance with Canadian Council on Animal Care guidelines and following protocol approval by the local Animal Care and Use Committee. Female Balb/C mice were subjected to a two-week quarantine and acclimation period prior to use at six to eight-weeks of age. RNA formulations were administered by standard injection in the lateral tail vein in 0.2 ml PBS. Six hours after injection, blood was collected by cardiac puncture and processed as plasma for cytokine analysis. In experiments studying inhibition of cytokine induction by loxoribine, formulated RNA (100 μg) was administered IV 2 h prior to IV administration of 1 mg loxoribine in PBS. Blood was collected by cardiac puncture 2 h after administration of loxoribine and processed as plasma for cytokine analysis.
# TLR7/8 = assay: Cytokine induction in human PBMCs by immunostimulatory RNA, alone or co-formulated with modified ssRNA in the same SNALP/lipid particle; assay type: cell-based; details: human PBMC cultures; lipid-formulated RNA alone; doses 0.1 to 3 μg/ml
# Procedure: All RNA molecules used in this study were heated at 90° C. for 3 min. and then placed at 37° C. for 60 min. Non-denaturing PAGE analysis on a 20% polyacrylamide gel was performed to confirm that ssRNA molecules were intact and that no duplexes had formed upon heating. The RNA molecules were encapsulated in a SNALP formulation comprising PEG-cDMA:DLinDMA:cholesterol:DSPC in a 2:40:48:10 mol % ratio (2:40 SNALP), prepared using a syringe press process.
# Fresh human peripheral blood mononuclear cells (PBMCs) were isolated and seeded at about 3×10^5 cells/well in a total volume of 180 μl. Next, 20 μl of the appropriate SNALP diluted in PBS or 10 μl of naked TLR agonist were added to the PBMCs. For time course experiments, PBMCs were pretreated with UmodS ssRNA or a control and the appropriate naked TLR agonist was added at 0, 0.5, or 2 hours after pretreatment. When the SNALP and naked TLR agonist were added separately, the SNALP was added first followed by the naked TLR agonist. At t=24 hr., the cell supernatant was harvested and IFN-α and/or IL-6 levels were determined using ELISA.
# The ssRNA molecules used in this study were heated at 90° C. for 3 min. and then placed at 37° C. for 60 min to disrupt any potential secondary structure. Non-denaturing PAGE analysis on a 20% polyacrylamide gel was performed to confirm that ssRNA molecules were intact and that no duplexes had formed upon heating. siRNA duplexes were prepared by annealing equimolar concentrations of two deprotected and desalted ssRNA oligonucleotides using standard procedures. Formation of annealed siRNA duplexes was confirmed by non-denaturing PAGE analysis on a 20% polyacrylamide gel. The RNA molecules were encapsulated in a 2:40 SNALP formulation prepared using a syringe press process.
# Fresh human peripheral blood mononuclear cells (PBMCs) were isolated and seeded at about 3×10^5 cells/well in a total volume of 180 μl. Next, 20 μl of the appropriate SNALP diluted in PBS were added to the PBMCs. At t=24 hr., the cell supernatant was harvested and IFN-α and/or IL-6 levels were determined using an enzyme-linked immunosorbent assay (ELISA). For example, IFN-α and IL-6 levels can be measured using a sandwich ELISA kit available from PBL Biomedical (Piscataway, N.J.) and eBioscience (San Diego, Calif.), respectively.
# as §1
# Cell Isolation and Culture. Human PBMCs were isolated from whole blood of healthy donors by a standard Ficoll-Hypaque density centrifugation. Blood was diluted 1:1 with PBS, layered onto Ficoll-Paque Plus, and centrifuged at 1600 RPM for 30 min. PBMCs were washed in PBS twice followed by resuspension in complete media (RPMI 1640, 10% heat inactivated FBS, 2 mM L-glutamine, and 1% penicillin/streptomycin). PBMCs were plated at 2.5×10^5 cells/well in 96 well plates for cytokine induction assays.
# as §2, §3
# TLR7 [2] = target: T2, TLR7; assay: In vivo inhibition of loxoribine-mediated cytokine induction in mice; parameters: from tissue; host or cells: whole animal: female Balb/C mice, plasma cytokines; species or system Balb/C mice; details: 100 μg formulated RNA IV 2 h prior to 1 mg Lox
# Procedure: as §3, §4
substance,measurement,setting,value
"ODN 6295: CpG Type A ODN, phosphodiester: TAACGTTGAGGGGCAT (DNA, all phosphodiester, methylation of C not given here; formulated in lipid nanoparticles)",immunostimulatory activity of the ODN alone,TLR9,highly immunostimulatory
"ODN M362: CpG Type C ODN, phosphodiester: TCGTCGTCGTTCGAACGACGTTGAT (DNA, all phosphodiester, methylation of C not given here; formulated in lipid nanoparticles)",immunostimulatory activity of the ODN alone,TLR9,highly immunostimulatory
βgal-AS: immunostimulatory ssRNA: AAAUCGCUGAUUUGUGUAGUU (chemistry not given here) [reference compound],plasma IFN-α after administration of the formulated RNA alone,TLR7 [1],significant elevations
same,plasma IL-6 after administration of the formulated RNA alone,TLR7 [1],significant elevations
same,IFN-α production induced by the RNA alone,TLR7/8,induced high levels of IFN-α
ODN 1826,immunostimulatory activity of the ODN alone,TLR9,highly immunostimulatory
"GFP-S: native non-stimulatory ssRNA: GGCUACGUCCAGGAGCGCAUU (RNA, backbone not given here) [reference compound]",response to loxoribine (plasma IFN-α and IL-6) after pre-treatment,TLR7 [2],robust response
